How the values were obtained:
Assay in all cases: Test B pre-/postemergence
Format in all cases: in vivo
Set-up in all cases: key: 0 is no effect; 10 is complete control
[1] = tested on: soybean (Glycine max)
Procedure, shortened: (§1)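 Compounds in a surfactant-containing, non-phytotoxic solvent blend are applied to freshly planted seed (preemergence) and, concurrently, to seedlings of 2 to 18 cm at 1–4 leaves (postemergence). Plants stay in the greenhouse twelve to sixteen days and are then scored visually from 0 (no effect) to 10 (complete control).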

[2] = tested on: crabgrass (Digitaria sanguinalis)
Procedure, shortened: as §1

[3] = tested on: cocklebur (Xanthium strumarium)
Procedure, shortened: as §1

[4] = tested on: velvetleaf (Abutilon theophrasti)
Procedure, shortened: as §1

[5] = tested on: rape (Brassica napus)
Procedure, shortened: as §1

[6] = tested on: blackgrass (Alopecurus myosuroides)
Procedure, shortened: as §1

[7] = tested on: giant foxtail (Setaria faberii)
Procedure, shortened: as §1

[8] = tested on: sugar beet (Beta vulgaris)
Procedure, shortened: as §1

[9] = tested on: corn (Zea mays)
Procedure, shortened: as §1

[10] = tested on: pigweed (Amaranthus retroflexus)
Procedure, shortened: as §1

[11] = tested on: bedstraw (Galium aparine)
Procedure, shortened: as §1

[12] = tested on: momingglory (Ipomoea hederacea)
Procedure, shortened: as §1

[13] = tested on: broadleaf signalgrass (Brachiaria decumbens)
Procedure, shortened: as §1

[14] = tested on: wheat (Triticum aestivum)
Procedure, shortened: as §1

`Cc1cnc(-c2ccc(C(F)(F)F)cc2)nc1Cn1cnc(C(F)(F)F)c1` [Compound 10] was tested. Which “Plant response rating, Soybean” value ([1]; Rate 62 g/ha, Postemergence) did it give?
The value was 6.

What about the “Soybean plant response rating” value ([1]; Rate 62 g/ha, Preemergence) of the same compound?
Its value is 0.

And the “Plant response rating, Soybean” value ([1]; Rate 125 g/ha, Postemergence)?
The value was 6.

What about the “Soybean plant response rating” value ([1]; Rate 125 g/ha, Preemergence) of the same compound?
Its value is 0.

What about the “Plant response rating, Soybean” value ([1]; Rate 250 g/ha, Postemergence) of the same compound?
Its value is 8.

What about the “Plant response rating, Soybean” value ([1]; Rate 250 g/ha, Preemergence) of the same compound?
The value was 1.

And the “Plant response rating, Soybean” value ([1]; Rate 500 g/ha, Postemergence)?
Its value is 8.

What about the “Plant response rating, Soybean” value ([1]; Rate 500 g/ha, Preemergence) of the same compound?
The value was 1.

What about the “Plant response rating, Crabgrass” value ([2]; Rate 62 g/ha, Postemergence) of the same compound?
The value was 2.

What about the “Crabgrass plant response rating” value ([2]; Rate 62 g/ha, Preemergence) of the same compound?
The value was 5.

And the “Plant response rating, Crabgrass” value ([2]; Rate 125 g/ha, Postemergence)?
The value was 2.

What about the “Crabgrass plant response rating” value ([2]; Rate 125 g/ha, Preemergence) of the same compound?
The value was 7.

And the “Plant response rating, Crabgrass” value ([2]; Rate 250 g/ha, Postemergence)?
Its value is 4.

What about the “Plant response rating, Crabgrass” value ([2]; Rate 250 g/ha, Preemergence) of the same compound?
Its value is 9.

What about the “Plant response rating, Crabgrass” value ([2]; Rate 500 g/ha, Postemergence) of the same compound?
Its value is 6.

And the “Plant response rating, Crabgrass” value ([2]; Rate 500 g/ha, Preemergence)?
The value was 9.

And the “Plant response rating, Cocklebur” value ([3]; Rate 62 g/ha, Postemergence)?
Its value is 6.

And the “Plant response rating, Cocklebur” value ([3]; Rate 125 g/ha, Postemergence)?
The value was 8.

And the “Plant response rating, Cocklebur” value ([3]; Rate 250 g/ha, Postemergence)?
The value was 9.

And the “Plant response rating, Cocklebur” value ([3]; Rate 250 g/ha, Preemergence)?
Its value is 1.

And the “Plant response rating, Cocklebur” value ([3]; Rate 500 g/ha, Postemergence)?
The value was 9.

And the “Plant response rating, Cocklebur” value ([3]; Rate 500 g/ha, Preemergence)?
Its value is 3.

What about the “Plant response rating, Velvetleaf” value ([4]; Rate 62 g/ha, Postemergence) of the same compound?
Its value is 6.

What about the “Velvetleaf plant response rating” value ([4]; Rate 62 g/ha, Preemergence) of the same compound?
Its value is 5.

And the “Plant response rating, Velvetleaf” value ([4]; Rate 125 g/ha, Postemergence)?
Its value is 7.

And the “Velvetleaf plant response rating” value ([4]; Rate 125 g/ha, Preemergence)?
The value was 7.

What about the “Plant response rating, Velvetleaf” value ([4]; Rate 250 g/ha, Postemergence) of the same compound?
The value was 8.

And the “Plant response rating, Velvetleaf” value ([4]; Rate 250 g/ha, Preemergence)?
Its value is 8.

And the “Plant response rating, Velvetleaf” value ([4]; Rate 500 g/ha, Postemergence)?
The value was 9.

And the “Plant response rating, Velvetleaf” value ([4]; Rate 500 g/ha, Preemergence)?
The value was 8.

What about the “Plant response rating, Rape” value ([5]; Rate 62 g/ha, Postemergence) of the same compound?
Its value is 8.

And the “Rape plant response rating” value ([5]; Rate 62 g/ha, Preemergence)?
Its value is 3.

What about the “Plant response rating, Rape” value ([5]; Rate 125 g/ha, Postemergence) of the same compound?
The value was 9.

What about the “Rape plant response rating” value ([5]; Rate 125 g/ha, Preemergence) of the same compound?
The value was 4.

And the “Plant response rating, Rape” value ([5]; Rate 250 g/ha, Postemergence)?
The value was 9.

And the “Plant response rating, Rape” value ([5]; Rate 250 g/ha, Preemergence)?
The value was 4.

And the “Plant response rating, Rape” value ([5]; Rate 500 g/ha, Postemergence)?
Its value is 9.

And the “Plant response rating, Rape” value ([5]; Rate 500 g/ha, Preemergence)?
The value was 7.

And the “Plant response rating, Blackgrass” value ([6]; Rate 62 g/ha, Postemergence)?
The value was 1.

And the “Blackgrass plant response rating” value ([6]; Rate 62 g/ha, Preemergence)?
Its value is 1.

And the “Plant response rating, Blackgrass” value ([6]; Rate 125 g/ha, Postemergence)?
The value was 1.

What about the “Blackgrass plant response rating” value ([6]; Rate 125 g/ha, Preemergence) of the same compound?
The value was 2.

And the “Plant response rating, Blackgrass” value ([6]; Rate 250 g/ha, Postemergence)?
Its value is 3.

What about the “Plant response rating, Blackgrass” value ([6]; Rate 250 g/ha, Preemergence) of the same compound?
The value was 2.

And the “Plant response rating, Blackgrass” value ([6]; Rate 500 g/ha, Postemergence)?
The value was 3.

And the “Plant response rating, Blackgrass” value ([6]; Rate 500 g/ha, Preemergence)?
The value was 3.

And the “Plant response rating, Giant foxtail” value ([7]; Rate 62 g/ha, Postemergence)?
Its value is 2.

What about the “Giant foxtail plant response rating” value ([7]; Rate 62 g/ha, Preemergence) of the same compound?
The value was 3.

And the “Plant response rating, Giant foxtail” value ([7]; Rate 125 g/ha, Postemergence)?
The value was 2.

And the “Giant foxtail plant response rating” value ([7]; Rate 125 g/ha, Preemergence)?
The value was 7.

And the “Plant response rating, Giant foxtail” value ([7]; Rate 250 g/ha, Postemergence)?
Its value is 4.

What about the “Plant response rating, Giant foxtail” value ([7]; Rate 250 g/ha, Preemergence) of the same compound?
Its value is 8.

And the “Plant response rating, Giant foxtail” value ([7]; Rate 500 g/ha, Postemergence)?
The value was 5.

What about the “Plant response rating, Giant foxtail” value ([7]; Rate 500 g/ha, Preemergence) of the same compound?
The value was 9.

What about the “Plant response rating, Sugarbeets” value ([8]; Rate 62 g/ha, Postemergence) of the same compound?
Its value is 8.

What about the “Sugarbeets plant response rating” value ([8]; Rate 62 g/ha, Preemergence) of the same compound?
The value was 6.

What about the “Plant response rating, Sugarbeets” value ([8]; Rate 125 g/ha, Postemergence) of the same compound?
The value was 8.

What about the “Plant response rating, Sugarbeets” value ([8]; Rate 250 g/ha, Postemergence) of the same compound?
The value was 9.

What about the “Plant response rating, Sugarbeets” value ([8]; Rate 250 g/ha, Preemergence) of the same compound?
The value was 6.

And the “Plant response rating, Sugarbeets” value ([8]; Rate 500 g/ha, Postemergence)?
Its value is 9.

And the “Plant response rating, Sugarbeets” value ([8]; Rate 500 g/ha, Preemergence)?
The value was 10.

And the “Plant response rating, Corn” value ([9]; Rate 62 g/ha, Postemergence)?
Its value is 2.

And the “Corn plant response rating” value ([9]; Rate 62 g/ha, Preemergence)?
Its value is 0.

And the “Plant response rating, Corn” value ([9]; Rate 125 g/ha, Postemergence)?
Its value is 2.

And the “Corn plant response rating” value ([9]; Rate 125 g/ha, Preemergence)?
Its value is 0.

What about the “Plant response rating, Corn” value ([9]; Rate 250 g/ha, Postemergence) of the same compound?
The value was 3.

What about the “Plant response rating, Corn” value ([9]; Rate 250 g/ha, Preemergence) of the same compound?
The value was 0.

What about the “Plant response rating, Corn” value ([9]; Rate 500 g/ha, Postemergence) of the same compound?
The value was 3.

And the “Plant response rating, Corn” value ([9]; Rate 500 g/ha, Preemergence)?
Its value is 1.

What about the “Plant response rating, Redroot pigweed” value ([10]; Rate 62 g/ha, Postemergence) of the same compound?
The value was 9.

And the “Redroot pigweed plant response rating” value ([10]; Rate 62 g/ha, Preemergence)?
The value was 3.

And the “Plant response rating, Redroot pigweed” value ([10]; Rate 125 g/ha, Postemergence)?
Its value is 9.

And the “Redroot pigweed plant response rating” value ([10]; Rate 125 g/ha, Preemergence)?
Its value is 6.

What about the “Plant response rating, Redroot pigweed” value ([10]; Rate 250 g/ha, Postemergence) of the same compound?
The value was 9.

And the “Plant response rating, Redroot pigweed” value ([10]; Rate 250 g/ha, Preemergence)?
The value was 7.

And the “Plant response rating, Redroot pigweed” value ([10]; Rate 500 g/ha, Postemergence)?
Its value is 9.

What about the “Plant response rating, Redroot pigweed” value ([10]; Rate 500 g/ha, Preemergence) of the same compound?
Its value is 7.

And the “Plant response rating, Bedstraw” value ([11]; Rate 62 g/ha, Postemergence)?
The value was 8.

And the “Bedstraw plant response rating” value ([11]; Rate 62 g/ha, Preemergence)?
Its value is 3.

And the “Plant response rating, Bedstraw” value ([11]; Rate 125 g/ha, Postemergence)?
The value was 9.

And the “Bedstraw plant response rating” value ([11]; Rate 125 g/ha, Preemergence)?
Its value is 7.

What about the “Plant response rating, Bedstraw” value ([11]; Rate 250 g/ha, Postemergence) of the same compound?
The value was 10.

And the “Plant response rating, Bedstraw” value ([11]; Rate 250 g/ha, Preemergence)?
Its value is 7.

And the “Plant response rating, Bedstraw” value ([11]; Rate 500 g/ha, Postemergence)?
The value was 10.

And the “Plant response rating, Bedstraw” value ([11]; Rate 500 g/ha, Preemergence)?
Its value is 10.

And the “Plant response rating, Morningglory” value ([12]; Rate 62 g/ha, Postemergence)?
The value was 5.

And the “Morningglory plant response rating” value ([12]; Rate 62 g/ha, Preemergence)?
Its value is 2.

And the “Plant response rating, Morningglory” value ([12]; Rate 125 g/ha, Postemergence)?
The value was 7.

What about the “Morningglory plant response rating” value ([12]; Rate 125 g/ha, Preemergence) of the same compound?
The value was 3.

And the “Plant response rating, Morningglory” value ([12]; Rate 250 g/ha, Postemergence)?
Its value is 7.

And the “Plant response rating, Morningglory” value ([12]; Rate 250 g/ha, Preemergence)?
The value was 9.

And the “Plant response rating, Morningglory” value ([12]; Rate 500 g/ha, Postemergence)?
Its value is 9.

And the “Plant response rating, Morningglory” value ([12]; Rate 500 g/ha, Preemergence)?
Its value is 10.

And the “Plant response rating, B. signalgrass” value ([13]; Rate 62 g/ha, Postemergence)?
The value was 2.

What about the “B. signalgrass plant response rating” value ([13]; Rate 62 g/ha, Preemergence) of the same compound?
Its value is 1.

What about the “Plant response rating, B. signalgrass” value ([13]; Rate 125 g/ha, Postemergence) of the same compound?
The value was 3.

And the “B. signalgrass plant response rating” value ([13]; Rate 125 g/ha, Preemergence)?
The value was 1.

And the “Plant response rating, B. signalgrass” value ([13]; Rate 250 g/ha, Postemergence)?
The value was 3.

What about the “Plant response rating, B. signalgrass” value ([13]; Rate 250 g/ha, Preemergence) of the same compound?
Its value is 2.

And the “Plant response rating, B. signalgrass” value ([13]; Rate 500 g/ha, Postemergence)?
Its value is 3.

What about the “Plant response rating, B. signalgrass” value ([13]; Rate 500 g/ha, Preemergence) of the same compound?
Its value is 4.

What about the “Plant response rating, Wheat” value ([14]; Rate 62 g/ha, Postemergence) of the same compound?
The value was 2.

And the “Wheat plant response rating” value ([14]; Rate 62 g/ha, Preemergence)?
Its value is 0.

And the “Plant response rating, Wheat” value ([14]; Rate 125 g/ha, Postemergence)?
Its value is 3.

What about the “Wheat plant response rating” value ([14]; Rate 125 g/ha, Preemergence) of the same compound?
Its value is 0.

What about the “Plant response rating, Wheat” value ([14]; Rate 250 g/ha, Postemergence) of the same compound?
The value was 3.

What about the “Plant response rating, Wheat” value ([14]; Rate 250 g/ha, Preemergence) of the same compound?
The value was 0.

And the “Plant response rating, Wheat” value ([14]; Rate 500 g/ha, Postemergence)?
The value was 3.

What about the “Plant response rating, Wheat” value ([14]; Rate 500 g/ha, Preemergence) of the same compound?
Its value is 1.

From patent US6525001B1, “Substituted pyrimidine and pyridine herbicides” (Mid-American Commercialization Corporation, priority 1997, dated 2003)
